Consider 1 substance from US7803408B2, “Method of treating endothelial injury” (East Carolina University, priority 1996, dated 2010).

Where two headings read alike, the source gives them in different places.

In data set [1] the test system is Human umbilical vein endothelial cells (HUVECs). The format is cell-based. As for the experimental part: (§1) Cell Culture. Human umbilical vein endothelial cells (HUVECs) were obtained from Caesarian section derived cords. HUVECs were cultured by standard methodology in 25 cm^2 T-flasks (Corning Inc., Corning, N.Y.) coated with 0.5% porcine skin gelatin (Sigma Chemical Co., St. Louis, Mo.). Medium 199 (Life Technologies, Gaithersburg, Md.), supplemented with 20% defined fetal bovine serum (FBS) (Hyclone, Logan, Utah), 16 U/ml heparin (Sigma), 50 μg/ml bovine hypothalamus derived endothelial mitogen (Biomedical Technologies, Stoughton, Mass.), 100 U/ml penicillin and 100 μg/ml streptomycin was used for the growth of HUVECs. Endothelial cells were characterized by homogenous and typical cobblestone morphology, von Willebrand factor antigen positively, and the presence of Weibel-Palade bodies, as are known in the art.
Protection/Inhibition Assay. The number of metabolically active cells after exposure of endothelial cell cultures to test agents was assessed using a calorimetric method. This assay utilizes solutions of a tetrazolium compound [3-(4,5-dimethylthiazol-2-yl)-5-(3-carboxymethoxyphenyl)-2-(4 Sulfophenyl)-2H-tetrazolium] (MTS) and an electron coupling reagent, phenazine methosulfate (PMS; available from Promega Corp., Madison, Wis.). See Denizot and Lang, J. Immunol. Methods 89:271 (1986); Promega Corporation Technical Bulletins 112, 152 and 169). […] The amount of formazan is measured at 490 nm absorbance and is directly proportional to the numbers of living cells in culture.
(§2) Endothelial cells grown in the complete (supplemented) M199 medium were harvested in the log phase. […] The number and viability of the cells was determined using a hemocytometer and the trypan blue staining, respectively. […] The absorbance of each well at 490 nm was recorded using an ELISA plate reader. The LD50 and the effect of the various treatments on cell viability and chemosensitivity were determined by plotting the corrected absorbance at 490 nm versus the concentration of the additive (EPO, chemotherapeutic agent, or combinations thereof). […]

For data set [2] the test system is unchanged. Kind of data set: Protection/inhibition assay, EPO added two hours after cisplatin (MTS/PMS). The format is cell-based. How it is done:
as §1
Protection/Inhibition Assay. The number of metabolically active cells after exposure of endothelial cell cultures to test agents was assessed using a calorimetric method. This assay utilizes solutions of a tetrazolium compound [3-(4,5-dimethylthiazol-2-yl)-5-(3-carboxymethoxyphenyl)-2-(4 Sulfophenyl)-2H-tetrazolium] (MTS) and an electron coupling reagent, phenazine methosulfate (PMS; available from Promega Corp., Madison, Wis.). […] The amount of formazan is measured at 490 nm absorbance and is directly proportional to the numbers of living cells in culture.
as §2
Endothelial cell cultures were prepared as described in Example 1. […] Endothelial cell viability was assessed using the MTS/PMS colorimetric assay described in Example 1.

Data set [3] has the same test system. The format is cell-based. How it is done:
as §1, with “Endothelial cells were characterized by homogenous and typical cobblestone morphology, von Willebrand factor antigen positively, and the presence of Weibel-Palade bodies, as are known in the art.” left out
Protection/Inhibition Assay. The number of metabolically active cells after exposure of endothelial cell cultures to test agents was assessed using a calorimetric method. […] The amount of formazan is measured at 490 nm absorbance and is directly proportional to the numbers of living cells in culture.
Endothelial cells grown in the complete (supplemented) M199 medium were harvested in the log phase. […] The number and viability of the cells was determined using a hemocytometer and the trypan blue staining, respectively. […] The absorbance of each well at 490 nm was recorded using an ELISA plate reader. […]
Endothelial cell cultures were prepared as described in Example 1. […] Endothelial cell viability was assessed using the MTS/PMS calorimetric assay described in Example 1.
This is another data set of the same source.

For data set [4] the following is noted: doses of up to 1,500 Units/kg for three to four weeks; cited from earlier work.
The subject of data set [5] is human umbilical vein endothelial cells. Particulars: cited from earlier work.
In data set [6] the test system is bovine capillary endothelial cells. The following applies: cited from earlier work.

Regarding erythropoietin [EPO], the “effect on endothelial cell cultures vs cisplatin alone” value in data set [1] (0.15 to 1.25 U/ml EPO simultaneously with 1 μg/ml cisplatin) and in data set [2] (0.15 to 5 U/ml EPO two hours following 1 μg/ml cisplatin) was “protected from the damaging effects of cisplatin” throughout. Moreover, in data set [1] (0.3 U/ml EPO simultaneously with 1 μg/ml cisplatin), the “number of viable cells greater than in control cultures treated with cisplatin only” value was “approximately 30%”. The “endothelial cell growth vs cisplatin alone” value in data set [1] (5 to 20 U/ml EPO simultaneously with 1 μg/ml cisplatin) is “inhibited”. The “number of viable cells greater than that of controls” value in data set [2] (1.25 U/ml EPO two hours after 1 μg/ml cisplatin) was found to be 34%. The “cell viability vs controls (cisplatin only)” value in data set [2] (10 to 20 U/ml EPO two hours after 1 μg/ml cisplatin) was “reduced over that seen in controls”. Also, the figures for the “reduction of cell growth compared to controls” value in data set [3] (2.5 U/ml EPO two hours prior to cisplatin) and in data set [3] (5 U/ml EPO two hours prior to cisplatin) were 48% and 58%, respectively. In data set [4], the “toxic effects due to EPO itself” value is given as “without toxic effects”. In addition, the “mitogenic and chemoattractant (migratory) effect” value is “exerts a mitogenic and chemoattractant (migratory) effect” in data set [5]; “exerts a mitogenic and chemoattractant (migratory) effect” in data set [6].
